Experimental data from US10548902B1, “Telomerase enhancement potential of ecdysterone” (SAMI LABS LIMITED, priority 2018, dated 2020).

Biological target: T1, Telomerase (Homo sapiens, UniProt O14746)
T1 construct: endogenous in cells; host or cells: PBMCs isolated from blood, stimulated with 10 μg/ml PHA
Assay: Telomerase activity, TeloTAGGG telomerase PCR ELISA (TRAP assay) in PHA-treated PBMCs
Assay type: cell-based
Details: for % increase in Telomerase activity: PBMCs, 10 μg/ml PHA, 48 hours
Description: The assay was carried out using Telo TAGGG telomerase PCR ELISA kit (Roche). It allows highly specific amplification of telomerase mediated elongation products followed by detection through ELISA. In the first step telomerase adds the telomeric repeats (TTAGGG) tot eh 3′ end of the biotin labeled synthetic P1 primer. In the second step these elongation products are amplified using P2 and P1 primers generating telomerase specific 6 bp increments. PCR product is denatured and hybridized to a digioxigenin labeled telomere repeat specific detection probe. The resultant product is bound to a streptavidin specific miroplate via biotin labeled primer 1. The bound products are detected using anti digioxigenein antibody conjugated to horse radish peroxidase. The enzyme reaction is visualized using […] substrate.
2×10^5 PBMCs isolated from blood were seeded in RPMI 1640 medium in 6 well plates. Cells were treated with 10 μg/ml PHA along with different concentrations of ecdysterone/extracts containing ecdysterone. Cells were incubated in a humidified atmosphere with 5% CO2 for 48 hours. After 48 hours of incubation, cells were harvested and centrifuged at 3000 g for 10 minutes at 4° C. Supernatant was removed and PBS was added and centrifuged again. Pellet was suspended in lysis reagent on ice (TeloTAGGG™ Telomerase PCR ELISA). Suspension was retero pipetted at least thrice and incubated for 20 minutes on ice and centrifuged at 16000 g for 20 minutes at 4° C. TRAP assay followed by ELISA was performed as per manufacturer's instructions (TeloTAGGG™ Telomerase PCR ELISA, Merck).

T1 sequence (O14746 whole entry): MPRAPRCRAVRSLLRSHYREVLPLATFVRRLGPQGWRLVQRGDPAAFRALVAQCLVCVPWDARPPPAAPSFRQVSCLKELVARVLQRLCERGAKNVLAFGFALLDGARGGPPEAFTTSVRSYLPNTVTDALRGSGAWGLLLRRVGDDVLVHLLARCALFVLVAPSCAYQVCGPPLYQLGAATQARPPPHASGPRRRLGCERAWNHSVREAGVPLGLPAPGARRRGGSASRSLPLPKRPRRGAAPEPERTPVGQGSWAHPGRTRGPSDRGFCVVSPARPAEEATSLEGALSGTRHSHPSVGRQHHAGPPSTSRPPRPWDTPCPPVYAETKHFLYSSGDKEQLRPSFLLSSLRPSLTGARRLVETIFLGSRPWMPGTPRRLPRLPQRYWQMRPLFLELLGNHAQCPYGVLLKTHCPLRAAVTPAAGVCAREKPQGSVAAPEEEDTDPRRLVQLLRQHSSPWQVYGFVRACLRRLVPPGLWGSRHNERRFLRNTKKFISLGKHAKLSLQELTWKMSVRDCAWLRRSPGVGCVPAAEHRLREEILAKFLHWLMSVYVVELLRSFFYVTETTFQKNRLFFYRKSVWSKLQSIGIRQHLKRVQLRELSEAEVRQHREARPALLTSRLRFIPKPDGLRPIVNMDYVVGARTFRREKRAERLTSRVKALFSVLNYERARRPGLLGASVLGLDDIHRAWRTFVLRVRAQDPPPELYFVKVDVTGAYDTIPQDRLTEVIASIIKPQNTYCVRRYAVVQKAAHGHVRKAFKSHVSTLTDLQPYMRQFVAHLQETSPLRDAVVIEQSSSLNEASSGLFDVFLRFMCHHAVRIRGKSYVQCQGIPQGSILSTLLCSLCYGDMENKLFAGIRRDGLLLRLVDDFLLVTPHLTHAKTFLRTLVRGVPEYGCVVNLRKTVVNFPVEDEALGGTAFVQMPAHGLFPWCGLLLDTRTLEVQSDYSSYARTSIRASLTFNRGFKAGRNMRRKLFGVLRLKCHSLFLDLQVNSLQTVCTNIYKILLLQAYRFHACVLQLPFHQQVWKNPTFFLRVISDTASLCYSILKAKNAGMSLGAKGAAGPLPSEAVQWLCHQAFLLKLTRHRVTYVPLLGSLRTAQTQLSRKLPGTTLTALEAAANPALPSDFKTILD

## CC(C)(O)CC[C@@H](O)[C@](C)(O)[C@H]1CC[C@@]2(O)C3=CC(=O)[C@@H]4C[C@@H](O)[C@@H](O)C[C@]4(C)[C@H]3CC[C@]12C [Ecdysterone, ecdysterone]
Concentrations of 0.062-0.25 μg/ml
  increase in telomerase activity (in words): significant increase
Ecdysterone 0.062 μg/ml
  % increase in Telomerase activity: 62.1%
Ecdysterone 0.125 μg/ml
  % increase in Telomerase activity: 64.7%
Ecdysterone 0.25 μg/ml
  % increase in Telomerase activity: 63.31%
Ecdysterone 0.5 μg/ml
  % increase in Telomerase activity: Nil
